From patent publication US20150335662A1, “METHODS FOR DIAGNOSING AND TREATING SEPSIS” (priority 2013, published 2015)

Test system: Cecum Ligation-Puncture (CLP) induced sepsis
Experiment: Cecum Ligation-Puncture (CLP) induced sepsis in rats, daily calcitriol dosing, survival and body weight
Type: in vivo, adult Wistar rats
Conditions: CLP septic rats
Description: Then, the optimal dosing of calcitriol as an example of an agent for treatment of sepsis according to the present invention was determined. Anesthesia was induced in adult Wistar rats with 5% isoflurane followed by maintenance on 2.5% isoflurane. The cecum was exteriorized via a small abdominal incision, and was then ligated approximately 3.5 […] distal to the cecum tip. The ligated cecum was punctured twice with a 26-gauge needle and was gently squeezed to extrude some stool. The cecum was replaced in the abdomen and the incision closed with 4-0 silk sutures in two layers, abdominal wall and skin. This Cecum Ligation-Puncture (CLP) procedure induced sepsis in the animals. Sham-operated rats were treated identically, except that the cecum was neither ligated nor punctured.
The rats then received either standard therapy (normal saline (30 ml/kg body weight) given once immediately after the CLP procedure to compensate the third-space fluid loss and imipenem (25 mg/kg body weight) daily subcutaneously) or therapy according to the present invention (calcitriol at 25 ng, 100 ng or 400 ng in peanut oil subcutaneously daily). The rats were monitored daily for body weight and survival.
Referring now to FIG. 9 and FIG. 10, there are shown, respectively, a graph of percent survival as a function of time after induction of sepsis in rats showing the effect of various doses of calcitriol (none, triangles; 25 ng daily, line; 100 ng daily, circles; and 400 ng daily, squares) (FIG. 9); and a graph of body weight in grams as a function of time after induction of sepsis in rats showing the effect of various doses of calcitriol (none, triangles; 25 ng daily, line; 100 ng daily, circles; and 400 ng daily, squares) (FIG. 10).

SMILES: C=C1C(=CC=C2CCC[C@]3(C)[C@@H]2CC[C@@H]3[C@H](C)CCCC(C)(C)O)C[C@@H](O)C[C@@H]1O [calcitriol, (1R,3S)-5-[2-[(1R,3aR,7aS)-1-[(2R)-6-hydroxy-6-methyl-heptan-2-yl]-7a-methyl-2,3,3a,5,6,7-hexahydro-1H-inden-4-ylidene]ethylidene]-4-methylidene-cyclohexane-1,3-diol]
- signs of hypercalcemia (400 ng daily subcutaneously): typical signs of hypercalcemia
- effect on survival (400 ng daily subcutaneously, FIG. 9): negatively affected
- effect on body weight (400 ng daily subcutaneously, FIG. 10): negatively affected
- optimal dose for survival (calcitriol 25, 100 or 400 ng in peanut oil subcutaneously daily, FIG. 9): 100 ng daily
- optimal dose for body weight (calcitriol 25, 100 or 400 ng in peanut oil subcutaneously daily, FIG. 10): 100 ng daily
